Source: patent US20240352066A1, “ANTIMICROBIAL COMPOUNDS AND THE METHOD OF USE” (priority 2021, published 2024)
≈ marks a conversion by molar mass, not a printed value. Where a SMILES comes first, the peptide text is derived from it. [ ]: non-standard residue; d: D form. N(tridecyl)Gly = CCCCCCCCCCCCCNCC(=O)O; Gly(N-2-aminoethyl) = NCCNCC(=O)O; Gly(N-cHex) = O=C(O)CNC1CCCCC1; Nlys = NCCCCNCC(=O)O

Assays:
[1] = test system: A. baumannii; assay type: cell-based, Acinetobacter baumannii; conditions: 24 h
Protocol: The minimum inhibitory concentration (MIC) of peptoids against the ESKAPE bacteria (Enterococcus faecium ATCC 6569; Staphylococcus aureus ATCC 29213; Klebsiella pneumoniae ATCC 13883; Acinetobacter 55aumannii ATCC 19606; Pseudomonas aeruginosa ATCC 25619; Enterococcus faecalis ATCC 29212; and Escherichia coli ATCC 25922) was determined following CLSI guidelines (CLSI. Methods for Dilution Antimicrobial Susceptibility Tests for Bacteria That Grow Aerobically, 11th Edition. (Clinical and Laboratory Standards Institute, 2018). The MIC against Mycobacterium smegmatis was also determined following CLSI guidelines (Woods et al., Susceptibility Testing of Mycobacteria, Nocardiae, and Other Aerobic Actinomycetes, 2nd edition. (2011)). Colonies picked from streaked tryptic soy agar plates were added to tryptic soy broth (TSB) to achieve a turbidity of OD600=0.08-0.15. Inoculant was diluted 1:200 into cation adjust Mueller Hinton Broth (CAVHB) and 90 μL was plated into each well of a 96 well black-wall plate. […] Following incubation for the ESKAPE bacteria, PrestoBlue (10 μL) was added to each well and incubated at 37° C. for one hour before measuring fluorescence on a SpectraMax M5 plate reader (Ex. 555 nm; Em. 585 nm). Following incubation for M. smegmatis, wells were scored following CLSI guidelines to determine MIC. […]

[2] = test system: C. neoformans
[3] = test system: 3T3 fibroblasts; experiment: in vitro; assay type: cell-based, mouse
Protocol: (§1) Hepatocellular carcinoma (HepG2), mouse fibroblast (3T3), human lung (HPL1A), and human keratinocyte (HaCat) cells were cultured in Dulbecco modified eagle media (DMEM) containing 10% fetal bovine serum (FBS) and 1% penicillin, streptomycin, and glutamine (PSG) at 37° C. and 5% CO2. Cells were collected and adjusted to […] to 4×10^5 cells/mL in phenol-red free DMEM and plated (100 μL) 96 well plates. 2-fold serial dilutions of 10× peptoid (11.1 μL) were added to each well in triplicate. Water (vehicle) was used as a negative control. Plates were incubated at 37° C. in 5% CO2 for 72 hours. Thiazolyl blue tetrazolium bromide (MTT) was added to each well (5 mg/mL; 20 μL) and incubated for 3 hours. Media was removed, DMSO (100 μL) was added, and plates were incubated at 37° C. for 10 minutes. Plates were read on a SpectraMax M5 plate reader (Abs. 570 nm). The concentration of compound resulting in a 50% reduction in growth compared to control (toxicity dose 50%; TD50) was determined using GraFit. This procedure was repeated three times on separate days.

[4] = in vitro; assay type: cell-based, mouse; conditions: mouse, 3T3 fibroblasts
Protocol: as §1

## CCCCCCCCCCCCCNCC(=O)N(CC(=O)N(CCCCN)CC(=O)N(CCN)CC(=O)N(CC(N)=O)C1CCCCC1)C1CCCCC1 [RMG8-8, Ntri-Ncha-Nlys-Nae-Ncha] (H-[N(tridecyl)Gly][Gly(N-cHex)][Nlys][Gly(N-2-aminoethyl)][Gly(N-cHex)]-NH2)
[1]
  MIC A. baumannii: 25 µg/mL (≈ 32.8 µM)
[2]
  MIC C. neoformans after incubation with human serum: 3.13 µg/mL
  MIC C. neoformans, stock not incubated with human serum: 1.56 µg/mL
[3]
  TD50 3T3: 59 µg/mL
[4]
  CC50 at 72 h: 59 ± 15 µg/mL (≈ 77.3 µM)
